The test addresses T1, Formate dehydrogenase (FDH, Candida boidinii) ([Candida] boidinii, UniProt O13437).
T1 sequence (O13437 1-364): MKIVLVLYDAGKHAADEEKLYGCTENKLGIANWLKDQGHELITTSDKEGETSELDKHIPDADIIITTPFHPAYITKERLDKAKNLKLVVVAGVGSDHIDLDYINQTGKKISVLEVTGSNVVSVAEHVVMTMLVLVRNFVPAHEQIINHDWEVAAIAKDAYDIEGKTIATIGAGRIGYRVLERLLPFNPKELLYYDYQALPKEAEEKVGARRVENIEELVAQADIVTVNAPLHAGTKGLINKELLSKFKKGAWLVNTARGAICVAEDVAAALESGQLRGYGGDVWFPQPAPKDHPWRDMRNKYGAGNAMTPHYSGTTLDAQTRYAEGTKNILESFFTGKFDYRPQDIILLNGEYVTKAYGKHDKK
In words: isothermal titration calorimetry. Type of test: binding.

SMILES strings stand for the structures.

Take `[N-]=[N+]=NCc1ccc[n+]([C@@H]2O[C@H](COP(=O)(O)OP(=O)(O)OC[C@H]3O[C@@H](n4cnc5c(N)ncnc54)[C@H](O)[C@@H]3O)[C@@H](O)[C@H]2O)c1` [PAAD^+]: the Kd was 7 µM.

The Kd is the free concentration of one partner at which half of the binding sites on the other are occupied at equilibrium, for simple one-to-one binding. Read a low Kd as a tighter complex.
